We go through two molecules from patent US10858364B2, “Imidazopyrazine inhibitors of Bruton's tyrosine kinase” (Acerta Pharma B.V., priority 2016, dated 2020).

In one experiment the target is ITK (Homo sapiens (Human), UniProt Q08881). The experiment in a line: ITK enzyme activity, IMAP assay. Particulars: 60 min pre-incubation, 5 μM ATP. Format: biochemical. On the procedure: ITK enzyme activity is measured using the IMAP (immobilized metal ion affinity-based fluorescence polarization) assay as outlined below.
ITK enzyme (Millipore #14-660M) is diluted to 0.2 U/mL in KR buffer (10 mM Tris-HCl, 10 mM MgCl2, 0.01% Tween-20, 0.1% NaN3, 1 mM DTT, 2 mM MnCl2, pH 7.5)
Serial dilutions log 10 from 2 mM to 63.2 nM of test compounds are made in 100% DMSO. The dilutions in DMSO are then diluted 50-fold in KR-buffer. Final compound concentration range in the assay ranged from 10 μM to 0.316 nM.
The assay is performed as follows: 5 μL/well of test compound in KR buffer (final DMSO concentration in the assay is 1%) is mixed with 5 μL/well of 0.2 U/mL ITK enzyme (final concentration in the assay is 0.05 U/mL (8.4 nM)). Test compounds and ITK enzyme are pre-incubated 60 minutes at room temperature, before adding 5 μL/well of 200 nM Fluorescin labeled substrate peptide (Blk/Lyntide substrate # R8124, Molecular Devices) in KR-buffer. Final peptide substrate concentration in assay is 50 nM. The kinase assay is started by adding 5 μL/well of 20 μM ATP in KR-buffer (final ATP concentration is 5 μM ATP, Km ATP in ITK IMAP assay). […] IC50 values are determined by curve fitting of the experimental results in Dotmatics.

In experiment [1] the target is T1, BTK (Homo sapiens (Human), UniProt Q06187). The experiment can be described thus: DiscoveRx Kd dose response, BTK. The experiment is classed as binding. As to the method:
(§1) Kinase profiling was performed with M27 was done at DiscoveRx at a single dose of 1 μM on all available kinases (KINOMEscan). The overall kinase selectivity score is in Table 6. […] Kinases inhibited >65% at 1 μM for M27 were followed up with a dose response at DiscoveRx. The M27 had IC50 values <1 μM for almost the same set of kinases with exception of TXK, but with additional inhibition of BRK (PTK6).
Target sequence in this assay (Q06187 whole entry): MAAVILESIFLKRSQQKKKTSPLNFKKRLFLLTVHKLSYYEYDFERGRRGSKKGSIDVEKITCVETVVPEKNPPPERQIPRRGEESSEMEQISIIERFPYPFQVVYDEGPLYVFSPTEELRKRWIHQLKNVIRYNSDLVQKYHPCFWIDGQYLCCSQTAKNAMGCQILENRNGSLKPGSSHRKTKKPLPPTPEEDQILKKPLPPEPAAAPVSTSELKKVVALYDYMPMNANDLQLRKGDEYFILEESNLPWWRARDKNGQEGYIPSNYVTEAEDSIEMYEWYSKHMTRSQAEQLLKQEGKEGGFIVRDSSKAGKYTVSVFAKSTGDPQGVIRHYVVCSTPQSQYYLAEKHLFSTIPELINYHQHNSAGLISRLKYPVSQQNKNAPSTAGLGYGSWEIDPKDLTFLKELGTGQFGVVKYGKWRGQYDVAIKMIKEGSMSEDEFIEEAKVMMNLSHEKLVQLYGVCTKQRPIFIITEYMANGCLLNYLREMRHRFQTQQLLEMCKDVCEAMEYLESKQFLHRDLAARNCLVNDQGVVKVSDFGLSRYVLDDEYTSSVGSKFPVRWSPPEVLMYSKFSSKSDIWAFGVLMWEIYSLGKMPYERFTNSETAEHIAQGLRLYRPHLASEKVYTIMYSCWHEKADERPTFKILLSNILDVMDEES

A further experiment addresses LIMK1 (Homo sapiens (Human), UniProt P53667). The experiment in a line: DiscoveRx Kd dose response, LIMK1. The experiment is classed as binding. On the procedure:
as §1

For experiment [2], the target named is T1, BTK. The experiment in a line: BTK inhibition in a biochemical assay, relative to acalabrutinib.
Target sequence in this assay (Q06187 whole entry, species assumed): as the sequence (Q06187 whole entry) above
A further experiment has as its target ERBB2 (Homo sapiens (Human), UniProt P04626). The experiment in a line: ERBB2 Z'-LYTE kinase assay. Format: biochemical. Particulars: 1 h pre-incubation, Km ATP. As to the method:
(§2) BMX, TXK, EGFR, ERBB2, ERBB4, JAK3, BLK kinase activity was measured using the Z′-LYTE assay at Thermo Fisher. A 10-point dose response (final concentration in assay ranged from 10 μM to 0.5 nM in 3-fold dilution per dilution step) was generated with 1 h incubation of the test compound with the kinase prior to initiation of the kinase reaction by the addition of ATP. ATP concentration in the assay was Km ATP for the different kinases. IC50 values are determined by curve fitting of the experimental results at Thermo Fisher.

The target of the next experiment is BLK (Homo sapiens (Human), UniProt P51451). The experiment in a line: BLK Z'-LYTE kinase assay. The experiment is classed as biochemical. The conditions noted are these: 1 h pre-incubation, Km ATP. On the procedure: as §2
For a further experiment, the target named is BTK wild type (BTK-WT) (Homo sapiens (Human), UniProt Q06187). The experiment in a line: BTK-WT LanthaScreen, inhibition constants from IC50 over time. Format: binding. On the procedure: Inhibitory activity on BTK wild type (BTK-WT) and BTK Cys481Ser mutant (BTK-C481S) was measured using the LanthaScreen assay technology from ThermoFisher according to manufacturer's protocol. BTK-WT or BTK-C481 S (Genscript) were mixed and diluted with Eu-anti-GST antibody (Invitrogen) in Kinase buffer (50 mM Hepes pH 7.5+10 mM MgCl2+1 mM EGTA+0.01% Brij-35) to 15 and 6 nM, respectively. Final concentration in the assay for enzyme and antibody are 5 and 2 nM, respectively. Tracer (Kinase Tracer 236, Invitrogen) is diluted in Kinase buffer to 90 nM. Final concentration in the assay is 30 nM. Serial dilutions log 10 from 1 mM to 3.16 nM of test compounds are made in 100% DMSO. The dilutions in DMSO are then diluted 33-fold in Kinase buffer (50 mM Hepes pH 7.5+10 mM MgCl2+1 mM EGTA+0.01% Brij-35). The assay is performed as follows: 5 μL/well of BTK-WT or BTK-C481S enzyme and EU-anti-GST antibody dilution is mixed with 5 μL/well tracer dilution and 5 μL/well of compound dilution in Kinase buffer. Final compound concentration in the assay ranged from 10 μM to 0.316 nM, with 1% DMSO final concentration in assay. Mixture was incubated at room temperature in the dark and at different times of incubation (5 min, 10 min, 20 min, 30 min, 40 min, 60 min, 90 min, 120 min, 180 min and 300 min) the TR-FRET signal was read at 615 nm and 665 nm. The ratio 665/615 was used to calculate values expressed as percentage of the difference in readout (S/N) of the controls with and without Tracer. IC50 values for each timepoint were determined by curve fitting of the experimental results in Dotmatics. […] The kinetics in covalent binding are determined by affinity of the compound to BTK and by the reactivity of the electrophile. Using the data for M27 from the LanthaScreen assay on BTK-WT, the inhibition constants can be calculated for the parent and the metabolite. […] The Ki and kinact parameters were derived from IC50 values over time, according to the method of Krippendorff et al (J Biomol Screen. 2009, 14(8):913-23) with measured Km=102 nM for the tracer used in the assay.
Sequence of BTK wild type (BTK-WT) (Q06187 whole entry): as above

Sequence of ITK (Q08881 whole entry): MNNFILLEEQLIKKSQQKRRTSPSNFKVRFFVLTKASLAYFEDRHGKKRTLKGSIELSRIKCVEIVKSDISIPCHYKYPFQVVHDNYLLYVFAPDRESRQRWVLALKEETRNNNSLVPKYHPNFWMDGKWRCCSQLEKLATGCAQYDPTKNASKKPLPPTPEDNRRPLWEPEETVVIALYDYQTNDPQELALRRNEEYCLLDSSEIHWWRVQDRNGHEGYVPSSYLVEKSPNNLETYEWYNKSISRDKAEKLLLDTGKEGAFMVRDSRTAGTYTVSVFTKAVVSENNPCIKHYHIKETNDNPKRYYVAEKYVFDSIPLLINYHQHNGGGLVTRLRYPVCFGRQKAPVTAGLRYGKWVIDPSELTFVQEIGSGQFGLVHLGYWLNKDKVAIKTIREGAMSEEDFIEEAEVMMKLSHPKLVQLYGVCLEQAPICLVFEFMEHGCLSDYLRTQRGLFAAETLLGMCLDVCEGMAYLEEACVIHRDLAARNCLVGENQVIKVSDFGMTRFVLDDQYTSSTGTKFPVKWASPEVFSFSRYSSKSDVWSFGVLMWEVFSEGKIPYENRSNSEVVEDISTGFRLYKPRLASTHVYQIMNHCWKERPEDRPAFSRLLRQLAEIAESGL
Sequence of LIMK1 (P53667 whole entry): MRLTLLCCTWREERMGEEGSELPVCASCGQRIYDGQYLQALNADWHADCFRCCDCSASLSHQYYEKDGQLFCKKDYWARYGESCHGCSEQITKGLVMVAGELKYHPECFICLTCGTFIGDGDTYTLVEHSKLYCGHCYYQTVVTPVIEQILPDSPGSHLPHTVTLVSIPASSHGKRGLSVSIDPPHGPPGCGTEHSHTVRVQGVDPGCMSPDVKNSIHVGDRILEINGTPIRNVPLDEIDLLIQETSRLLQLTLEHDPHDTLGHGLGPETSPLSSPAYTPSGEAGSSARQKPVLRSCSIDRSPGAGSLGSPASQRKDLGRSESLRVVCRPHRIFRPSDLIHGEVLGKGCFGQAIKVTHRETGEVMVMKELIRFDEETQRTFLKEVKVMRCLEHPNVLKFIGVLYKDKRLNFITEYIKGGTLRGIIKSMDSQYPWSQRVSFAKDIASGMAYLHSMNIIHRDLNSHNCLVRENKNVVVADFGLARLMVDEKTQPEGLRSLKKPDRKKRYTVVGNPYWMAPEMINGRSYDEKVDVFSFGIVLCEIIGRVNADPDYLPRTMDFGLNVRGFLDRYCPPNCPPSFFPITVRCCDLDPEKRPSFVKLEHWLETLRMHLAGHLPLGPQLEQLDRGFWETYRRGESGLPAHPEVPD
Sequence of BLK (P51451 whole entry): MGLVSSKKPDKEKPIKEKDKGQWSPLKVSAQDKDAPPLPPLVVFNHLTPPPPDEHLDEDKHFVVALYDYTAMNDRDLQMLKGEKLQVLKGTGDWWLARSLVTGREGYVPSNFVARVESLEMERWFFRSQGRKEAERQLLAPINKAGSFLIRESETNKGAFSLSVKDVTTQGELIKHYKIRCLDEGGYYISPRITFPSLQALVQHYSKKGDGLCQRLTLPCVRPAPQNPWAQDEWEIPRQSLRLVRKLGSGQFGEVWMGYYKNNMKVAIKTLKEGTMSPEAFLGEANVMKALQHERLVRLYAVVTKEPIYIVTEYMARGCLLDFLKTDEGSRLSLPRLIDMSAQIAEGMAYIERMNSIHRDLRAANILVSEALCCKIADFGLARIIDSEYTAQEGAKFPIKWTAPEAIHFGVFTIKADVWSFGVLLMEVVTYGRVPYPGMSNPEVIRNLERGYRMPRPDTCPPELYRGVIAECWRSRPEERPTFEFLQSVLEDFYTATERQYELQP
Sequence of ERBB2 (P04626 23-1255): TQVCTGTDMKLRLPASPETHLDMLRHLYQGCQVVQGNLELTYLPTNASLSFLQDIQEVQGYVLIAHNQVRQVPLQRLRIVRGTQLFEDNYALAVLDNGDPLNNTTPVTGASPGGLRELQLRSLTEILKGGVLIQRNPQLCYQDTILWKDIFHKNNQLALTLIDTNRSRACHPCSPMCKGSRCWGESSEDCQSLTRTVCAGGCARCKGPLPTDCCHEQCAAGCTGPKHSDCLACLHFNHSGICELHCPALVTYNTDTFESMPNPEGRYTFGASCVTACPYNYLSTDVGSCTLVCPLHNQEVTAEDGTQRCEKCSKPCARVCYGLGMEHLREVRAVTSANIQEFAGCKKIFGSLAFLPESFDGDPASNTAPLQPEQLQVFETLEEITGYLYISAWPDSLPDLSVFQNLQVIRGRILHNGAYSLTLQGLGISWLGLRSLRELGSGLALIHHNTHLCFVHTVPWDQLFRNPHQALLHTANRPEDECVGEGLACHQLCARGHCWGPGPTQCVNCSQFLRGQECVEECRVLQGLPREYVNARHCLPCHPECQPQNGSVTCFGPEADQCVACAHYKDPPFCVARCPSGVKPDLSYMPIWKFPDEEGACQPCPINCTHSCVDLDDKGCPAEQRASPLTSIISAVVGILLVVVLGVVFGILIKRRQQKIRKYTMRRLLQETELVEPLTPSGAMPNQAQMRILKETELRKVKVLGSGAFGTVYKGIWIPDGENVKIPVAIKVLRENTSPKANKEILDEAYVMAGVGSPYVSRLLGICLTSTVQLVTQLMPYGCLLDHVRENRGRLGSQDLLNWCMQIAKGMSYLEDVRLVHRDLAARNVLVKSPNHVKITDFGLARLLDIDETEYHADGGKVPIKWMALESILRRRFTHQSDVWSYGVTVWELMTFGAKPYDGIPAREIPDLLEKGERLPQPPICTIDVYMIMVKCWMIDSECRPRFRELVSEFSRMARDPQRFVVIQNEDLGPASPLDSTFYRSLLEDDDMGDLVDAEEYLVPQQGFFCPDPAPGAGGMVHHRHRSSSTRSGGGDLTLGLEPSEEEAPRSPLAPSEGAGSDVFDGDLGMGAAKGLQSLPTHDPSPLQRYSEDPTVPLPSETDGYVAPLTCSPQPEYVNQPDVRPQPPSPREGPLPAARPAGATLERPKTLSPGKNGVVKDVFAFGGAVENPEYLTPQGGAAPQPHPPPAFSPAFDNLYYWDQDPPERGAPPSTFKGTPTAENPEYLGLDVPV

One may read the IC50 as the concentration needed to halve the response being measured. A higher IC50 goes with lower potency. For the molecule `CC#CC(=O)NCCCC(=O)c1nc(-c2ccc(C(=O)Nc3ccccn3)c(OC)c2)c2c(N)nccn12` [Formula (II), 4-(8-amino-3-(4-(but-2-ynamido)butanoyl)imidazo[1,5-a]pyrazin-1-yl)-2-methoxy-N-(pyridin-2-yl)benzamide], the IC50 at ITK was > 10000 nM.

One may read the Kd as a measure of binding affinity in units of concentration. A higher Kd goes with lower affinity. The term kinact/KI denotes the maximal inactivation rate divided by the concentration that gives half of it. As a reminder, the kinact is the maximal first-order rate at which the target is inactivated. Broadly, the Ki is the equilibrium dissociation constant of an inhibitor or competing ligand from its target. Read a high Ki as weaker binding. As to `CC#CC(=O)NCCCC(=O)c1nc(-c2ccc(C(=O)Nc3ccccn3)cc2)c2c(N)nccn12` [Formula (I), 4-(8-amino-3-(4-(but-2-ynamido)butanoyl)imidazo[1,5-a]pyrazin-1-yl)-N-(pyridin-2-yl)benzamide], the Kd worked out at 29 nM at BTK [1] and 400 nM at LIMK1. Also, the “less potent than acalabrutinib with regard to BTK inhibition” value at BTK [2] is “approximately 50%”. For the same molecule, the IC50 was > 10000 nM against ITK, 552 ± 166 nM on ERBB2 and 6170 ± 3350 nM on BLK. Moreover, the kinact/KI at BTK wild type (BTK-WT) came out at 16500 M⁻¹ s⁻¹. Moreover, the kinact on BTK wild type (BTK-WT) (derived from IC50 values over time (Krippendorff method)) was determined as 0.0031 ± 0.0003 s⁻¹. For the same molecule, on BTK wild type (BTK-WT) (derived from IC50 values over time (Krippendorff method), tracer Km=102 nM), the affinity corresponds to a Ki of 188 ± 9 nM.
